Assay results published in US20130253047A1 (priority 2006, published 2013).

System: H5N1
Type: cell-based

Row | Compound | inhibition of H5N1 infections in mammalian cells by blocking the attachment and entry into the cells
1 | O=C(O[C@@H]1Cc2c(O)cc(O)cc2O[C@@H]1c1cc(=O)c(O)c2c(O)c(O)cc([C@H]3Oc4cc(O)cc(O)c4C[C@H]3O)c2c1)c1cc(O)c(O)c(O)c1 [theaflavin-3 gallate] | inhibits H5N1 infections in mammalian cells
2 | O=c1c(O)cc([C@H]2Oc3cc(O)cc(O)c3C[C@H]2O)cc2c([C@H]3Oc4cc(O)cc(O)c4C[C@H]3O)cc(O)c(O)c12 [theaflavin] | inhibits H5N1 infections in mammalian cells
3 | (−)-epigallocatechin gallate | inhibits H5N1 infections in mammalian cells
4 | theaflavin-3,3′-digallate | inhibits H5N1 infections in mammalian cells
5 | theaflavin-3′-gallate | inhibits H5N1 infections in mammalian cells
